Measurements taken from patent publication US8329717B2, “Pyrimidine derivatives and their use for controlling undesired plant growth” (Bayer Cropscience AG, priority 2008, dated 2012).

Columns and labels:
[1] = logp (HCOOH), chemicophysical data; conditions: HCOOH
Amaranthus retroflexus = assay: Pre-emergence herbicidal effect; assay type: in vivo; conditions: Dosage 320 g/ha, visual scoring after 3 weeks vs untreated controls, 100% = plants have died
From the text: (§1) 1. Pre-Emergence Herbicidal Effect and Crop Plant Compatibility Seeds of monocotyledonous or dicotyledonous weed plants or crop plants are planted in wood-fiber pots in sandy loam and covered with earth. The compounds according to the invention, formulated in the form of wettable powders (WP) or as emulsion concentrates (EC), are then applied as aqueous suspension or emulsion at a water application rate of 600 to 800 l/ha (converted) with the addition of 0.2% of wetting agent to the surface of the covering earth. The dosage of the compounds according to the invention is given in grams per hectare. Following the treatment, the pots are placed in a greenhouse and kept under good growth conditions for the test plants. The visual scoring of the damage on the test plants is carried out after an experiment time of 3 weeks in comparison with untreated controls (herbicidal effect in percent (%): 100% effect=plants have died, 0% effect=as control plants). The following abbreviations are used in the tables below: [table]

Matricaria inodora = assay: Pre-emergence herbicidal effect; assay type: in vivo; conditions: Dosage 320 g/ha, visual scoring after 3 weeks vs untreated controls, 100% = plants have died
From the text: as §1

Veronica persica = assay: Pre-emergence herbicidal effect; assay type: in vivo; conditions: Dosage 320 g/ha, visual scoring after 3 weeks vs untreated controls, 100% = plants have died
From the text: as §1

Viola tricolor = assay: Pre-emergence herbicidal effect; assay type: in vivo; conditions: Dosage 320 g/ha, visual scoring after 3 weeks vs untreated controls, 100% = plants have died
From the text: as §1

Echinochloa crus-galli = assay: Pre-emergence herbicidal effect; assay type: in vivo; conditions: Dosage 320 g/ha, visual scoring after 3 weeks vs untreated controls, 100% = plants have died
From the text: as §1

Stellaria media = assay: Pre-emergence herbicidal effect; assay type: in vivo; conditions: Dosage 320 g/ha, visual scoring after 3 weeks vs untreated controls, 100% = plants have died
From the text: as §1

SMILES	logp (HCOOH) [1]	further results
Cc1ccccc1-c1nc(N[C@@H]2CCCc3ccccc32)nc(N)c1C#N [Example 1.78]	solid; logp (HCOOH): 3.41; 1H-NMR (CDCl3, 400 MHZ, δ in ppm): 1.85-2.05 (br, 4H,	–
Cc1ccc2c(c1)[C@H](Nc1nc(N)cc(-c3ccccc3)n1)[C@@H](C)C2 [Example 1.83]	wax-like; logp (HCOOH): 1.71; 1H-NMR (CDCl3, 400 MHZ, δ in ppm): 1.25 (m, 3H, CH3);	–
CC1(c2nc(N[C@@H]3CCCc4ccccc43)nc(N)c2C#N)CC1 [Example 1.84]	wax-like; logp (HCOOH): 2.63; 1H-NMR (CDCl3, 400 MHZ, δ in ppm): 0.75 (m, 2H, CH2);	–
Cc1ccc(C2(c3nc(N[C@@H]4CCCc5ccccc54)nc(N)c3C#N)CC2)cc1 [Example 1.85]	wax-like; logp (HCOOH): 4.02; 1H-NMR (CDCl3, 400 MHZ, δ in ppm): 1.70-2.10 (br,	–
N#Cc1c(N)nc(N[C@@H]2CCCc3ccccc32)nc1C1(c2ccc(Cl)cc2Cl)CC1 [Example 1.86]	wax-like; logp (HCOOH): 5.15; 1H-NMR (CDCl3, 400 MHZ, δ in ppm): 1.25 (br, 2H,	–
Cc1ccc2c(c1)[C@H](Nc1nc(N)cc(N(C)C)n1)[C@@H](C)C2 [Example 1.91]	wax-like; logp (HCOOH): 1.66; 1H-NMR (CDCl3, 400 MHZ, δ in ppm): 1.25 (d, 3H, CH3);	–
Cc1ccc2c(c1)[C@H](Nc1nc(N)c(C#N)c(C3(C)CC3)n1)[C@@H](C)C2 [Example 1.93]	wax-like; logp (HCOOH): 3.31; 1H-NMR (CDCl3, 400 MHZ, δ in ppm): 0.75 (m, 2H, CH2);	–
Cc1ccc2c(c1)[C@H](Nc1ncc(C(F)(F)F)c(N)n1)[C@@H](C)C2 [Example 1.107]	wax-like, logp (HCOOH): 2.11; 1H-NMR (CDCl3, 400 MHZ, δ in ppm): 1.25 (d, 3H, CH3);	–
C#Cc1cnc(N[C@@H]2CCCc3ccccc32)nc1N [Example 1.116]	wax-like; logp (HCOOH): 1.09; 1H-NMR (CDCl3, 400 MHZ, δ in ppm): 1.80 (m, 3H, 3H	–
COC(=O)c1cc(N)nc(N[C@H]2c3cc(C)ccc3C[C@@H]2C)n1 [Example 1.118]	wax-like; logp (HCOOH): 2.96; 1H-NMR (CDCl3, 400 MHZ, δ in ppm): 1.30 (d, 3H, CH3);	–
Cc1nc(N[C@@H]2CCc3ccccc32)nc(N)c1[N+](=O)[O-] [Example 1.123]	–	Pre-emergence herbicidal effect AMARE (Amaranthus retroflexus): 100%; Pre-emergence herbicidal effect MATIN (Matricaria inodora): 100%; Pre-emergence herbicidal effect VERPE (Veronica persica): 100%; Pre-emergence herbicidal effect VIOTR (Viola tricolor): 100%; Pre-emergence herbicidal effect ECHCG (Echinochloa crus-galli): 80%; Pre-emergence herbicidal effect STEME (Stellaria media): 100%
CC(=O)c1cnc(N[C@H]2c3cc(C)ccc3C[C@@H]2C)nc1N [Example 1.184]	wax-like; logp (HCOOH): 1.58; 1H-NMR (CDCl3, 400 MHZ, δ in ppm): 1.30 (d, 3H, CH3);	–
Cc1ccc2c(c1)[C@H](Nc1nc(N)cc(C(F)(F)F)n1)[C@@H](C)C2 [Example 1.214]	wax-like; logp (HCOOH): 1.59; 1H-NMR (CDCl3, 400 MHZ, δ in ppm): 1.30 (d, 3H, CH3);	–
COc1cccc(C#Cc2cnc(N[C@H]3c4cc(C)ccc4C[C@@H]3C)nc2N)c1 [Example 1.221]	wax-like; logp (HCOOH): 1.98; 1H-NMR (CDCl3, 400 MHZ, δ in ppm): 1.25 (d, 3H, CH3);	–
Cc1ccc2c(c1)[C@H](Nc1ncc(C#CCO)c(N)n1)[C@@H](C)C2 [Example 1.222]	wax-like; logp (HCOOH): 1.04; 1H-NMR (CDCl3, 400 MHZ, δ in ppm): 1.25 (d, 3H, CH3);	–
Nc1nc(N[C@@H]2CCc3ccccc32)ncc1C(F)(F)F [Example 1.237]	wax-like; logp (HCOOH): 1.50; 1H-NMR (CDCl3, 400 MHZ, δ in ppm): 1.80 (m, 1H, 1H	–
Cc1ccc2c(c1)[C@H](Nc1ncc(C#Cc3cccc(C(F)(F)F)c3)c(N)n1)[C@@H](C)C2 [Example 1.247]	wax-like; logp (HCOOH): 2.60; 1H-NMR (CDCl3, 400 MHZ, δ in ppm): 1.25 (d, 3H, CH3);	–
Cc1ccc2c(c1)[C@H](Nc1ncc(C#Cc3ccc(F)c(Cl)c3)c(N)n1)[C@@H](C)C2 [Example 1.248]	wax-like; logp (HCOOH): 2.71; 1H-NMR (CDCl3, 400 MHZ, δ in ppm): 1.25 (d, 3H, CH3);	–
Cc1ccc2c(c1)[C@H](Nc1ncc(C#CCC(C)C)c(N)n1)[C@@H](C)C2 [Example 1.249]	wax-like; logp (HCOOH): 1.73; 1H-NMR (CDCl3, 400 MHZ, δ in ppm): 1.00 (d, 6H,	–
CCC(O)C#Cc1cnc(N[C@H]2c3cc(C)ccc3C[C@@H]2C)nc1N (stereo partly drawn) [Example 1.251]	wax-like; logp (HCOOH): 1.48; 1H-NMR (CDCl3, 400 MHZ, δ in ppm): 1.00 (t, 3H, CH3);	–
CC(=O)OCC#Cc1cnc(N[C@H]2c3cc(C)ccc3C[C@@H]2C)nc1N [Example 1.252]	wax-like; logp (HCOOH): 1.59; 1H-NMR (CDCl3, 400 MHZ, δ in ppm): 1.25 (d, 3H, CH3);	–
Cc1nc(N[C@@H]2CCCc3ccccc32)nc(N)c1C(=O)OC1CCCCC1 [Example 1.255]	wax-like; logp (HCOOH): 2.03; 1H-NMR (CDCl3, 400 MHZ, δ in ppm): 2.10-2.65 (m,	–
